From patent US20260285801A1, “LIPID NANOPARTICLE FOR TARGETED DELIVERY OF THERAPEUTIC PAYLOADS” (Trustees of Tufts College, priority 2023, published 2026)

Tests used:
[1] = LNP size and polydispersity index by dynamic light scattering (Zetasizer Nano ZS); type: physicochemical; details: LNP with mRNA payload formulated with the lipid; active lipid/Cholesterol/DOPC/DMG-PEG 16.8/4.0/2.0/1.0; Lipids:mRNA 25:1; PBS pH 7.4, 25° C.
Experimental: (§1) RNA working solutions (0.134 mg/ml) were prepared in 25 mM sodium acetate buffer using DNase/RNase-free distilled water. Lipid stock solutions (10 mg/mL) were freshly prepared with active lipids or helper lipids (e.g., cholesterol, DOPC or DSPC, or ALC-0159) in ethanol. Reagents were mixed by vortexing and sonicating until the lipids were completely dissolved. A lipid mixture was first prepared by combining the active lipids (e.g., ionizable lipids of the present disclosure) and helper lipids into one vial and mixing thoroughly. Lipid nanoparticles were then formed by mixing the RNA working solution (0.134 mg/ml) and the lipid mixture at 3:1 volume ratio, either manually (for smaller scale) or by Precision Igniter microfluidic device. The formulation solution was transferred into a 300 kDa MWCO Float-A-Lyzer G2 Dialysis Device and dialyzed against at least 1000-folds volume of 50 mM Tris buffer overnight at 4° C. The LNP solution was sterilized with a 0.22 μm filter.
(§2) For LNP characterization, size and polydispersity index (PDI) were determined by dynamic light scattering using a Zetasizer Nano ZS. 10 μL of LNP suspension was transferred to a low-volume cuvette containing 900 μL of Ca^2+ and Mg^2+ free PBS at pH 7.4. Refractive index was set to […] and temperature was set to 25° C. Encapsulation efficiency (EE %) was measured using a fluorescence plate-based assay employing the Ribogreen reagent (Invitrogen) as per PNI Ribogreen assay protocol 16. This assay measures the quantity of mRNA in samples with intact LNPs to determine the quantity of unencapsulated RNA as well as in LNP samples disrupted by triton X-100 to measure the total RNA. EE % is calculated as the difference between the total RNA and the unencapsulated RNA divided by the total RNA.

[2] = Encapsulation efficiency and mRNA quantity by Ribogreen fluorescence plate assay; type: physicochemical; details: LNP with mRNA payload formulated with the lipid, 16.8/4.0/2.0/1.0, Lipids:mRNA 25:1; for EE %: (total RNA - unencapsulated RNA)/total RNA
Experimental: as §1, §2

female adult BALB/c mice = assay: IV injection of Luc mRNA/LNP, whole body bioluminescence by IVIS imaging; type: in vivo; details: single i.v., 5 μg mRNA, 6 hours post injection; for delivery of the luciferase mRNA to the liver in vivo (luciferase intensity, IVIS): LNPs of L88, L854, L855 compared, FIGS. 4A-5B
Experimental: All animal experiments were conducted in accordance with the approved animal protocols. LNPs were formulated with lipids and mRNA encoding Luciferase (Luc) based on TABLE 3. LNPs comprising 5 μg mRNA and 50 μg active lipids (e.g., ionizable lipids) were injected intravenously (i.v.) to female adult BALB/c mice (6-8 wk. old). Six hours post injection, 100 μL of luciferin K salt (15 mg/mL in PBS) was administered to the mice through intraperitoneal injections. The mice were then imaged using the In Vivo Imaging System (IVIS) and the total flux of areas of interest was quantified. FIGS. 2A-2G illustrate representative IVIS data using the LNPs formulated with active lipids from TABLE 4. […] FIGS. 4A-7B show further analysis of the IVIS results. In FIGS. 4A-4B and FIGS. 5A-5B, the lipid nanoparticles were formulated with luciferase mRNA and lipids L88, L854, and L855, respectively. The experiment was conducted in duplicates. […] Existing lipid formulations in the industry were used as controls in the experiment. For example, lipids provided herein were compared to ALC-0315 (Pfizer) and SM-102 (Moderna).

CC/C=C\CCCCOC(=O)CCN(CCCN(C)CCCN(CCC(=O)OCCOC(=O)OCC(CCCC)CCCCCC)CCC(=O)OCCOC(=O)OCC(CCCC)CCCCCC)CCC(=O)OCCOC(=O)OCC(CCCC)CCCCCC (stereo not shown) [Lipid L0830]
PDI [1]: 0.105 | Size (nm) [1]: 125.1 nm | [mRNA] Ug/ml [2]: 91 Ug/ml | EE % [2]: 48%

CCCCCCC(CCCC)COC(=O)CCOC(=O)CCN(CCCN(C)CCCN(CCC(=O)OCCC(=O)OCC(CCCC)CCCCCC)CCC(=O)OCCC(=O)OCC(CCCC)CCCCCC)CCC(=O)OCCC(=O)OCC(CCCC)CCCCCC (stereo not shown) [Lipid L0854]
PDI [1]: 0.098 | Size (nm) [1]: 120.3 nm | [mRNA] Ug/ml [2]: 77.7 Ug/ml | EE % [2]: 94.6% | delivery of the luciferase mRNA to the liver in vivo (luciferase intensity, IVIS) (female adult BALB/c mice): more efficient delivery of the luciferase mRNA to the liver | luciferase mRNA delivery to the liver compared to ALC-0315 (female adult BALB/c mice; FIGS. 6A-6B): more luciferase mRNA delivery to the liver than ALC-0315

CCCCCCC(CCCC)COC(=O)CCOC(=O)CCN(CCC(=O)OCCC(=O)OCC(CCCC)CCCCCC)CCN(C)CCN(CCC(=O)OCCC(=O)OCC(CCCC)CCCCCC)CCC(=O)OCCC(=O)OCC(CCCC)CCCCCC (stereo not shown) [Lipid L0855]
PDI [1]: 0.125 | Size (nm) [1]: 99.86 nm | [mRNA] Ug/ml [2]: 78.9 Ug/ml | EE % [2]: 95.1% | delivery of the luciferase mRNA to the liver in vivo (luciferase intensity, IVIS) (female adult BALB/c mice): more efficient delivery of the luciferase mRNA to the liver | luciferase mRNA delivery compared to SM-102 (female adult BALB/c mice; FIGS. 7A-7B): more luciferase mRNA delivery than SM-102
